Measured values taken from ChEMBL document CHEMBL1158169, “Functionalized chalcones with basic functionalities have antibacterial activity against drug sensitive Staphylococcus aureus” (Eur J Med Chem, 2008).
≈ marks a conversion by molar mass, not a printed value.

What was measured:
[1] = tested on: Escherichia coli; assay: Antibacterial activity against Escherichia coli ATCC 49696 after 20 hrs by microdilution assay; assay type: functional; details: ATCC 49696, 20 h
[2] = tested on: Staphylococcus aureus; assay: Antibacterial activity against methicillin-sensitive Staphylococcus aureus ATCC 13150 after 20 hrs by microdilution assay; assay type: functional
[3] = Toxicity in sheep erythrocytes assessed as hemolysis at 100 uM after 90 mins; assay type: cell-based, Ovis aries, Erythrocyte; details: read-out: Activity
[4] = tested on: Staphylococcus aureus; assay: Antibacterial activity against Staphylococcus aureus; assay type: functional
[5] = tested on: Staphylococcus aureus; assay: Antibacterial activity against methicillin-resistant Staphylococcus aureus; assay type: functional
[6] = Toxicity in sheep erythrocytes assessed as hemolysis at 25 uM after 90 mins; assay type: cell-based, Ovis aries, Erythrocyte; details: read-out: Activity
[7] = Toxicity in sheep erythrocytes assessed as hemolysis at 300 uM after 90 mins; assay type: cell-based, Ovis aries, Erythrocyte; details: read-out: Activity
[8] = Staphylococcus aureus, ATCC 13150, 20 h, read-out: MIC

| Compound | MIC [1] [µM] | MIC [2, 8] [µM] | also measured |
| --- | --- | --- | --- |
| COc1ccc(C(=O)/C=C/c2ccc(Cl)cc2)c(OC)c1 | > 100 | > 100 | – |
| CN1CCC(c2ccc(O)c(C(=O)/C=C/c3ccccc3Cl)c2)CC1 | > 100 | 25 (≈ 8.9 µg/mL) | hemolysis at 1.5 h, 100 µM [3]: 14.8% |
| COc1cc(OC)c(C2CCN(C)CC2)cc1C(=O)/C=C/c1ccc(C)cc1 | > 100 | > 100 | – |
| COc1ccccc1/C=C/C(=O)c1cc(C2CCN(C)CC2)c(OC)cc1OC | > 100 | > 100 | – |
| COc1ccc(/C=C/C(=O)c2cc(C3CCN(C)CC3)c(OC)cc2OC)cc1 | > 100 | > 100 | – |
| COc1cc(OC)c(C2CCN(C)CC2)cc1C(=O)/C=C/c1ccccc1F | > 100 | > 100 | – |
| COc1cc(OC)c(C2CCN(C)CC2)cc1C(=O)/C=C/c1ccc(C(F)(F)F)cc1 | > 100 | 50 (≈ 21.7 µg/mL) | – |
| COc1cc(OC)c(C2CCN(C)CC2)c(O)c1C(=O)/C=C/c1ccccc1Cl | > 100 | 50 (≈ 20.8 µg/mL) | – |
| COc1cc(OC)c(C2CCN(C)CC2)c(O)c1C(=O)/C=C/c1ccc(Cl)cc1 | > 100 | 25 (≈ 10.4 µg/mL) | hemolysis at 1.5 h, 100 µM [3]: 5.5% |
| COc1ccc(C(=O)/C=C/c2ccccn2)c(OC)c1 | > 100 | > 100 | – |
| COc1ccc(C(=O)/C=C/c2ccc(N3CCN(C)CC3)cc2)c(OC)c1 | > 100 | > 100 | – |
| COc1cc(OC)c(C2CCN(C)CC2)c(O)c1C(=O)/C=C/c1ccccc1 | > 100 | > 100 | – |
| COc1cc(OC)c(C2CCN(C)CC2)c(O)c1C(=O)/C=C/c1ccccc1F | > 100 | > 100 | – |
| COc1cc(OC)c(C2CCN(C)CC2)c(O)c1C(=O)/C=C/c1ccc(C)cc1 | > 100 | 6.25 (≈ 2.47 µg/mL) | hemolysis at 1.5 h, 100 µM [3]: 6.7% |
| COc1ccccc1/C=C/C(=O)c1c(OC)cc(OC)c(C2CCN(C)CC2)c1O | > 100 | 50 (≈ 20.6 µg/mL) | – |
| COc1cccc(/C=C/C(=O)c2c(OC)cc(OC)c(C3CCN(C)CC3)c2O)c1 | > 100 | > 100 | – |
| COc1cc(OC)c(C2CCN(C)CC2)c(O)c1C(=O)/C=C/c1cccc(Cl)c1 | > 100 | 6.25 (≈ 2.6 µg/mL) | hemolysis at 1.5 h, 100 µM [3]: 6.5% |
| COc1cc(OC)c(C2CCN(C)CC2)c(O)c1C(=O)/C=C/c1ccc(C#N)cc1 | > 100 | > 100 | – |
| COc1cc(OC)c(C2CCN(C)CC2)cc1C(=O)/C=C/c1ccc(Cl)cc1 | > 100 | > 100 | – |
| COc1cc(OC)c(C2CCN(C)CC2)cc1C(=O)/C=C/c1ccncc1 | > 100 | > 100 | – |
| COc1cc(OC)c(C2CCN(C)CC2)c(O)c1C(=O)/C=C/c1ccc(N(C)C)cc1 | > 100 | 25 (≈ 10.6 µg/mL) | hemolysis at 1.5 h, 100 µM [3]: 10.3% |
| COc1cc(OC)c(C2CCN(C)CC2)cc1C(=O)/C=C/c1cccnc1 | > 100 | > 100 | – |

| Compound | MIC [1] [µM] | MIC [2, 8] [µM] | also measured |
| --- | --- | --- | --- |
| COc1cc(OC)c(N2CCC(N3CCCCC3)CC2)cc1C(=O)/C=C/c1ccccc1Cl | > 100 | > 100 | – |
| COc1cc(OC)c(C2CCN(C)CC2)cc1C(=O)/C=C/c1ccccn1 | > 100 | > 100 | – |
| COc1cc(O)c(C(=O)/C=C/c2ccccc2)cc1C | > 100 | > 100 | – |
| COc1ccc(C2CCN(C)CC2)cc1C(=O)/C=C/c1ccccc1Cl | > 100 | > 100 | – |
| COc1ccc(C(=O)/C=C/c2ccccc2Cl)c(OC)c1 | > 100 | > 100 | – |
| COc1ccc(C2CCN(C)CC2)cc1C(=O)/C=C/c1ccc(Cl)cc1 | > 100 | > 100 | – |
| COc1ccc(C2CCN(C)CC2)cc1C(=O)/C=C/c1ccccc1 | > 100 | 100 (≈ 33.5 µg/mL) | – |
| CCN1CCC(c2cc(C(=O)/C=C/c3ccccc3Cl)c(OC)cc2OC)CC1 | > 100 | > 100 | – |
| CCN1CCC(c2cc(C(=O)/C=C/c3ccccc3)c(OC)cc2OC)CC1 | > 100 | > 100 | – |
| CCN1CCC(c2cc(C(=O)/C=C/c3ccc(Cl)cc3)c(OC)cc2OC)CC1 | > 100 | 50 (≈ 20.7 µg/mL) | – |
| CCN1CCC(c2cc(C(=O)/C=C/c3ccc(N4CCN(C)CC4)cc3)c(OC)cc2OC)CC1 | > 100 | > 100 | – |
| CCN1CCC(c2cc(C(=O)/C=C/c3ccncc3)c(OC)cc2OC)CC1 | > 100 | > 100 | – |
| COc1cc(OC)c(C2CCN(C)CC2)cc1C(=O)/C=C/c1ccc(N2CCN(C)CC2)cc1 | > 100 | > 100 | – |
| COc1cc(O)c(C(=O)/C=C/c2ccccc2Cl)cc1C | > 100 | > 100 | – |
| COc1cc(OC)c(C2CCN(C)CC2)c(O)c1C(=O)/C=C/c1ccc(C(F)(F)F)cc1 | > 100 | > 100 | – |
| COc1cc(OC)c(C2CCN(C)CC2)cc1C(=O)/C=C/c1ccccc1C | > 100 | > 100 | – |
| COc1cc(OC)c(C2CCN(C)CC2)cc1C(=O)/C=C/c1ccccc1 | > 100 | > 100 | – |
| COc1cc(OC)c(C2CCN(C)CC2)c(O)c1C(=O)/C=C/c1ccccc1C | > 100 | 50 (≈ 19.8 µg/mL) | – |
| COc1cc(OC)c(C2CCN(C)CC2)c(O)c1C(=O)/C=C/c1ccc(N2CCN(C)CC2)cc1 | > 100 | > 100 | – |
| COc1ccc(/C=C/C(=O)c2c(OC)cc(OC)c(C3CCN(C)CC3)c2O)cc1 | > 100 | 50 (≈ 20.6 µg/mL) | – |
| COc1cc(OC)c(C2CCN(C)CC2)c(O)c1C(=O)/C=C/c1ccc(F)cc1 | > 100 | > 100 | – |
| COc1ccc(C(=O)/C=C/c2cccnc2)c(OC)c1 | > 100 | > 100 | – |

| Compound | MIC [1] [µM] | MIC [2, 8] [µM] | also measured |
| --- | --- | --- | --- |
| COc1ccc(/C=C/C(=O)c2c(OC)cc(OC)c(C3CCN(C)CC3)c2O)c(OC)c1 | > 100 | > 100 | – |
| COc1cc(O)c(C(=O)/C=C/c2ccccc2OC)cc1C | > 100 | > 100 | – |
| COc1ccc(/C=C/C(=O)c2cccc(N3CCNCC3)c2)c(OC)c1 | > 100 | 100 (≈ 35.2 µg/mL) | – |
| COc1cc(OC)c(N2CCC(N3CCCCC3)CC2)cc1C(=O)/C=C/c1ccccc1F | > 100 | > 100 | – |
| O=C(/C=C/c1ccc(Cl)cc1)c1cccc(N2CCNCC2)c1 | > 100 | 25 (≈ 8.17 µg/mL) | hemolysis at 1.5 h, 100 µM [3]: 11.6% |
| COc1cc(O)c(C(=O)/C=C/c2ccc(F)cc2)cc1C1CCN(C)CC1 | > 100 | > 100 | – |
| O=C(/C=C/c1ccccc1)c1cccc(N2CCNCC2)c1 | > 100 | > 100 | – |
| O=C(O)c1ccc(C(=O)/C=C/c2cc(Br)cc(Br)c2)cc1 | – | – | MIC [4]: 2 µM (≈ 0.82 µg/mL) |
| O=C(/C=C/c1ccccc1Cl)c1cccc(N2CCCCC2)c1 | > 100 | > 100 | – |
| O=C(/C=C/c1ccc(Cl)cc1)c1cccc(N2CCCCC2)c1 | > 100 | > 100 | – |
| COc1ccc(/C=C/C(=O)c2cccc(N3CCCCC3)c2)c(OC)c1 | > 100 | > 100 | – |
| Cc1cc(C)cc(-c2ccc(N3CCNCC3)c(/C=C/C(=O)c3ccc(NCCN(C)C)cc3)c2)c1 | – | – | MIC [5]: 2 µM (≈ 0.965 µg/mL) |
| O=C(/C=C/c1ccccc1Cl)c1cccc(N2CCNCC2)c1 | > 100 | > 100 | – |
| O=C(O)c1ccc(C(=O)/C=C/c2cc(C(F)(F)F)cc(C(F)(F)F)c2)cc1 | – | – | MIC [4]: 2 µM (≈ 0.777 µg/mL) |
| O=C(/C=C/c1ccccc1)c1cccc(N2CCCCC2)c1 | > 100 | > 100 | – |
| COc1ccc(C(=O)/C=C/c2ccccc2)c(OC)c1 | > 100 | > 100 | – |
| COc1cc(OC)c(C2CCN(C)CC2)cc1C(=O)/C=C/c1ccccc1Cl (stereo in doubt; 1-5) | > 100 | – | MIC [2]: 25 µM (≈ 10 µg/mL) |
| COc1cc(OC)c(C2CCN(C)CC2)cc1C(=O)/C=C/c1ccccc1Cl (stereo in doubt; 7-140) | – | – | MIC [2]: >100 µM |
| COc1ccc(C(=O)/C=C/c2ccncc2)c(OC)c1 [DILMEFONE] | > 100 | > 100 | – |
| C=CC(C)(C)c1cc(/C=C/C(=O)c2ccc(O)cc2)c(OC)cc1O [LICOAGROCHACONE A] | > 100 | 6.3 (≈ 2.13 µg/mL) | MIC [5]: 18.4 µM (≈ 6.23 µg/mL); hemolysis at 1.5 h, 25 µM [6]: 11.6%; hemolysis at 1.5 h, 300 µM [7]: 47.9%; hemolysis at 1.5 h, 100 µM [3]: 19.9% |
| CC1(C)S[C@@H]2[C@H](NC(=O)Cc3ccccc3)C(=O)N2[C@H]1C(=O)O [PENICILLIN G] | – | 0.1 (≈ 0.0334 µg/mL) | – |
